According to ChEMBL document CHEMBL1136711, “Synthesis and SAR of bicyclic heteroaryl hydroxamic acid MMP and TACE inhibitors” (Bioorg Med Chem Lett, 2003):

Tests used:
[1] = molecular target: Matrix metalloproteinase-9 (Homo sapiens, UniProt P14780); assay: Inhibitory activity against matrix metalloprotease 9 (MMP-9).
Collagenase 3 = Collagenase 3 (Homo sapiens, UniProt P45452); assay: Inhibitory activity against matrix metalloprotease 13 (MMP-13).
[2] = molecular target: Disintegrin and metalloproteinase domain-containing protein 17 (Homo sapiens, UniProt P78536); assay: Inhibitory activity against TACE.
Chain of Disintegrin and metalloproteinase domain-containing protein 17 (P78536 whole entry, the tested form may be a part): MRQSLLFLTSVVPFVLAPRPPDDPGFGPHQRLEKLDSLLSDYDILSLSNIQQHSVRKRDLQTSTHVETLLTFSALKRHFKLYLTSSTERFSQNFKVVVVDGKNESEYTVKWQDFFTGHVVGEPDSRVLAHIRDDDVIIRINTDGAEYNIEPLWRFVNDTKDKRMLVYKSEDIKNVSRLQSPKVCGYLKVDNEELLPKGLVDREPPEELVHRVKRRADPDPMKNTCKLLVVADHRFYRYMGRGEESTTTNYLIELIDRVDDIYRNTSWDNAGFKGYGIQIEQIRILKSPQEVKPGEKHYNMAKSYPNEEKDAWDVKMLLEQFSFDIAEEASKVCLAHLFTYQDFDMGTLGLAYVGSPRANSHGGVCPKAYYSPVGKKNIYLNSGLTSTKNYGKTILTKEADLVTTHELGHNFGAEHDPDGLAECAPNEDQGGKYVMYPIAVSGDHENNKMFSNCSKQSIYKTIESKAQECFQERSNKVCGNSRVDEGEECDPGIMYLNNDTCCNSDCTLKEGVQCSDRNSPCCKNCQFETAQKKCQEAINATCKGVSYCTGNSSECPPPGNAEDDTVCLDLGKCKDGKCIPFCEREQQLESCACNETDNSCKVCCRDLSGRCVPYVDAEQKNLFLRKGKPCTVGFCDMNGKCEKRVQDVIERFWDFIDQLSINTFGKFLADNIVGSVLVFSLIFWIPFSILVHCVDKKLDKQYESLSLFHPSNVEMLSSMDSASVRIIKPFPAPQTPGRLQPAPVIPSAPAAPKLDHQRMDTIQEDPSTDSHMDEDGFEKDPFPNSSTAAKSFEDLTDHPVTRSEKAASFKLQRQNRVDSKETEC

Interstitial collagenase = molecular target: T1, Interstitial collagenase (Homo sapiens, UniProt P03956); assay: Inhibitory activity against matrix metalloprotease 1 (MMP-1).
T1 sequence (P03956 whole entry): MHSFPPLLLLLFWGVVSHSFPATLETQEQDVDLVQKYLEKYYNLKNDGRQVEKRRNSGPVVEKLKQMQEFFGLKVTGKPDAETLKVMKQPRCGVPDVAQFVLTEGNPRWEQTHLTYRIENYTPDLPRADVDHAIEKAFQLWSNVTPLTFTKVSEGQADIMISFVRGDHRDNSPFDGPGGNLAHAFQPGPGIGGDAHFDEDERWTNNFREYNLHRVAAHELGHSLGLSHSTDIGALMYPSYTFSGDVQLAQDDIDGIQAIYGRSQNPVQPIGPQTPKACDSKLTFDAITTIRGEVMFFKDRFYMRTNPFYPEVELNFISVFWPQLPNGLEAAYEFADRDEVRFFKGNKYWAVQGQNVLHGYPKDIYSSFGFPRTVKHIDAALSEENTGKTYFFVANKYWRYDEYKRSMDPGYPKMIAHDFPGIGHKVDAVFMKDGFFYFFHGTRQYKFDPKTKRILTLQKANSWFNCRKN

Bos taurus = species on record: Bos taurus; assay: Ex vivo inhibition of cartilage degradation at 100 nM concentration in the bovine articular cartilage explant assay; type: functional; settings: Cartilage tissue
Rattus norvegicus = assay: In vivo inhibition of cartilage degradation at 50 mpk po bid in the rat sponge-wrapped cartilage implant model; type: functional
Mus musculus [3] = assay: In vivo inhibition of MMP-13 at 50 mpk po 1 hr after dosing in the mouse dialysis tubing implant assay; type: functional
Mus musculus [4] = assay: In vivo inhibition of MMP-13 at 25 mpk po 1 hr after dosing in the mouse dialysis tubing implant assay; type: functional
THP-1 = assay: In vitro inhibition of TNF-alpha release at a concentration of 3 uM by using THP cellular assay; type: functional, cell-based; settings: Homo sapiens

Chain of Matrix metalloproteinase-9 (P14780 whole entry): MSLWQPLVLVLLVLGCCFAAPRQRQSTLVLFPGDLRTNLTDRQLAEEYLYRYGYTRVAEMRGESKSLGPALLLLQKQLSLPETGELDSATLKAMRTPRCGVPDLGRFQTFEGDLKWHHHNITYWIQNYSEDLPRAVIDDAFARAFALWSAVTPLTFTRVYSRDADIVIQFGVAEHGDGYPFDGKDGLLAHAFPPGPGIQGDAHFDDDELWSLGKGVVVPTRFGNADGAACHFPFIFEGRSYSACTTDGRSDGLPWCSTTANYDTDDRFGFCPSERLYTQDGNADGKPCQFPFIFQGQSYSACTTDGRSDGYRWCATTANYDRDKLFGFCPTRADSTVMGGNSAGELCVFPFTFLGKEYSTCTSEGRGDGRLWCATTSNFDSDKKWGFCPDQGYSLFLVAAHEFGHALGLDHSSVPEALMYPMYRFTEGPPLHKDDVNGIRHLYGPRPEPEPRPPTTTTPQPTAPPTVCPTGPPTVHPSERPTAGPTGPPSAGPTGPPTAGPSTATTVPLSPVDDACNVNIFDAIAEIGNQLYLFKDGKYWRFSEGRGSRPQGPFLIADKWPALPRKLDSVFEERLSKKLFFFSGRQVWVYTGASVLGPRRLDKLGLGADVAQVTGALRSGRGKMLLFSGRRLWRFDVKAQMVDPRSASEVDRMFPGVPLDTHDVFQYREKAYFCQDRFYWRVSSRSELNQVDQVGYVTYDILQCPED

| IC50 [1] | IC50 (Collagenase 3) | IC50 [2] | Structure (SMILES) | IC50 (Interstitial collagenase) | other results |
| --- | --- | --- | --- | --- | --- |
| 4 nM | 1 nM | 1000 nM | COc1ccc(S(=O)(=O)N(Cc2cccnc2)c2c(C(=O)NO)cnc3cc(C(F)(F)F)ccc23)cc1 |  |  |
| 2 nM |  | > 100 nM | Cc1nn(C)c2ncc(C(=O)NO)c(N(C)S(=O)(=O)c3ccc(Oc4ccncc4)cc3)c12 |  | inhibition at 0.1 µM (Bos taurus): 61%; inhibition in vivo at 25 mg/kg (Mus musculus [4]): 54%; inhibition in vivo at 50 mg/kg (Rattus norvegicus): 46% |
| 3 nM | 3 nM | 124 nM | COc1ccc(S(=O)(=O)N(Cc2cccnc2)c2c(C(=O)NO)cnc3c(I)cccc23)cc1 |  |  |
| 11 nM | 7 nM | > 1000 nM | COc1ccc(S(=O)(=O)N(Cc2ccccc2)c2c(C(=O)NO)cnc3cc(Br)ccc23)cc1 |  |  |
| 6 nM | 20 nM | 435 nM | COc1ccc(S(=O)(=O)N(Cc2cccnc2)c2c(C(=O)NO)cnc3c2cnn3-c2ccccc2)cc1 |  |  |
| 2 nM |  |  | COc1ccc(S(=O)(=O)N(Cc2cccnc2)c2c(C(=O)NO)cnc3snc(C)c23)cc1 |  |  |
|  |  | 296 nM | COc1ccc(S(=O)(=O)N(C)c2c(C(=O)NO)cnc3c(Br)cccc23)cc1 |  |  |
| 100 nM |  |  | CC#CCOc1ccc(S(=O)(=O)N(C)c2c(C(=O)NO)cnc3c2c(C)nn3C)cc1 |  |  |
| > 1000 nM | > 1000 nM | > 1000 nM | Cc1ccc(S(=O)(=O)N(Cc2cccnc2)c2c(C(=O)NO)cnc3cc(C(F)(F)F)ccc23)cc1 | > 1000 nM |  |
|  |  | 6 nM | CC#CCOc1ccc(S(=O)(=O)N(C)c2c(C(=O)NO)cnc3onc(C)c23)cc1 |  |  |
| 11 nM | 7 nM | > 1000 nM | COc1ccc(S(=O)(=O)N(Cc2ccccc2)c2c(C(=O)NO)cnc3ccc(C(F)(F)F)cc23)cc1 |  |  |
|  | 9 nM |  | CC#CCOc1ccc(S(=O)(=O)N(C)c2c(C(=O)NO)cnc3c(OC)cccc23)cc1 |  |  |

The remaining lines, values behind:

| Structure (SMILES) | IC50 [1] | IC50 (Collagenase 3) | IC50 [2] | IC50 (Interstitial collagenase) | other results |
| --- | --- | --- | --- | --- | --- |
| Cc1nn(C)c2ncc(C(=O)NO)c(N(C)S(=O)(=O)c3ccc(Oc4ccc(Cl)cc4)cc3)c12 |  |  | 356 nM | 116 nM |  |
| COc1ccc(S(=O)(=O)N(Cc2cccnc2)c2c(C(=O)NO)cnc3c2c(C)nn3-c2ccccc2)cc1 |  |  |  | 115 nM |  |
| CCCCOc1ccc(S(=O)(=O)N(C)c2c(C(=O)NO)cnc3c2c(C)nn3C)cc1 | 7 nM | 3 nM | 86 nM | 1920 nM |  |
| CN(c1c(C(=O)NO)cnc2ccccc12)S(=O)(=O)c1ccc(Oc2ccncc2)cc1 |  | 1 nM | 124 nM | 1010 nM | inhibition at 0.1 µM (Bos taurus): 42%; inhibition in vivo at 50 mg/kg (Rattus norvegicus): 44%; inhibition in vivo at 50 mg/kg (Mus musculus [3]): 90% |
| COc1ccc(S(=O)(=O)N(Cc2cccnc2)c2c(C(=O)NO)cnc3c(-c4cccs4)cccc23)cc1 |  |  |  | 136 nM |  |
| COc1ccc(S(=O)(=O)N(Cc2ccccc2)c2c(C(=O)NO)cnc3ccc(Br)cc23)cc1 | 8 nM | 6 nM | > 1000 nM | 108 nM |  |
| C=Cc1cccc2c(N(C)S(=O)(=O)c3ccc(OC)cc3)c(C(=O)NO)cnc12 | 5 nM | 5 nM | 205 nM | 200 nM |  |
| Cc1nn(C)c2ncc(C(=O)NO)c(N(C)S(=O)(=O)c3ccc(F)cc3)c12 | 595 nM | 170 nM | > 1000 nM | 177 nM |  |
| O=C(NO)c1cnc2cc(C(F)(F)F)ccc2c1N(Cc1cccnc1)S(=O)(=O)c1ccc(-c2ccccc2)cc1 | 1160 nM |  | 124 nM |  |  |
| CC#CCOc1ccc(S(=O)(=O)N(C)c2c(C(=O)NO)cnc3c(Br)cccc23)cc1 |  |  |  |  | inhibition (THP-1): 32% |
